Consider 2 compounds from US20110152316A1, “3,4-SUBSTITUTED PIPERIDINE DERIVATIVES AS RENIN INHIBITORS” (priority 2008, published 2011).

The target of one assay is T1, Human recombinant renin (Homo sapiens, UniProt P00797).
T1 construct: purchased Proteos
T1 sequence (P00797 67-406): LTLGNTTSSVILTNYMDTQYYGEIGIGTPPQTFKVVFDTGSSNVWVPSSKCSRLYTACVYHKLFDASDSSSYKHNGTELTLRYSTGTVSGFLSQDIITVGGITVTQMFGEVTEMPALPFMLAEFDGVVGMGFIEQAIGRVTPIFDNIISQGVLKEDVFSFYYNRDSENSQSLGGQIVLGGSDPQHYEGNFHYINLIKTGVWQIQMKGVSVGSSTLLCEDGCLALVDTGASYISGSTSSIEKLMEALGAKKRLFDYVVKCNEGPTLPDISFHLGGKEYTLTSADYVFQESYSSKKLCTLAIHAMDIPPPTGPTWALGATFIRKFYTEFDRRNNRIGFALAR
Description: Inhibition of human recombinant renin (buffer). The following applies: 50 mM MOPS pH 7.4, 37° C., 3 hours. Type of assay: biochemical. The procedure: Human recombinant renin (Proteos) in 50 mM MOPS pH 7.4, 100 mM NaCl, 0.002% Tween 20 at a final concentration of […] is incubated with inhibitors from a 50 fold concentrated DMSO solution and 6 μM of an internally-quench fluorescent peptide: DNP-Lys-His-Pro-Phe-His-Leu-Val-Ile-His-D,L-Amp (SEQ ID NO: 1); Paschalidou K. et al., Biochem J., 2004, 382, 1031). The reactions take place in a Costar 384 well black plate (#3573) at 37° C. for 3 hours. Fluorescence is measured at times 0 and 3 hours with a SpectraMax Gemini EM reader set at an excitation wavelength of 328 nm and at an emission wavelength of 388 nm. Background fluorescence at t=0 is subtracted from the measurement at t=3 hours. Inhibitory activity of the compounds is expressed as IC 50.

For assay [1], the target named is T2, recombinant renin in human plasma (Homo sapiens, UniProt P00797).
T2 construct: purchased Proteos
T2 sequence (P00797 67-406): T1 sequence (P00797 67-406)
In words: Inhibition of renin in human plasma. It is filed as biochemical. The following applies: human EDTA plasma, 37° C., 1 hour. The procedure:
Human EDTA-collected plasma is rapidly thawed in warm water and centrifuged at 2900 g for 15 minutes at 4° C. The supernatant is collected and recombinant renin (Proteos) is added at a final concentration of 1 nM. The plasma is transferred to a Costar black 384 well plate (#3573). Renin inhibitors are added from a 17.5 fold concentrated DMSO solution and pre-incubated at 37° C. for 10 minutes. The internally-quench fluorescent peptide QXL520™-Lys-His-Pro-Phe-His-Leu-Val-Ile-His-Lys (5-FAM) (Anaspec), SEQ ID NO: 2, is diluted in 3M Tris pH 7.2, 200 mM EDTA and added to the plasma. The final concentrations are: 6 μM substrate, 342 mM Tris, 23 mM EDTA. The plate is incubated at 37° C. for 1 hour. The plate is read in a SpectraMax Gemini EM reader set at an excitation wavelength of 490 nm and an emission wavelength of 520 nm at times 0 and 1 hour. Background fluorescence at t=0 is subtracted from the measurement at t=1 hour. Inhibitory activity of the compounds is expressed as IC50.

As usually defined, the IC50 is the midpoint of a concentration-inhibition curve. Regarding `COCCCc1cc(CN(C(=O)[C@@H]2CNCC[C@H]2c2cc(=O)n(C)c3ccccc23)C2CC2)cc(OCCOC)c1` (relative stereo) [Example 1, trans-N-Cyclopropyl-4-(1-methyl-2-oxo-1,2-dihydro-4-quinolinyl)-N-({3-{[2-(methyloxy)ethyl]oxy}-5-[3-(methyloxy)propyl]phenyl}methyl)-3-piperidinecarboxamide], the results for the IC50 (on Human recombinant renin; in assay [1]) were 13 nM and 39 nM, respectively.
The matching figures for `COCCCc1cc(CN(C(=O)[C@@H]2CNCC[C@H]2c2cc(=O)n(C)c3cc(Cl)ccc23)C2CC2)cc(OCCOC)c1` (relative stereo) [Example 2, trans-4-(7-Chloro-1-methyl-2-oxo-1,2-dihydro-4-quinolinyl)-N-cyclopropyl-N-({3-{[2-(methyloxy)ethyl]oxy}-5-[3-(methyloxy)propyl]phenyl}methyl)-3-piperidinecarboxamide]: 2.2 nM and 7.6 nM.
